The subject of data set [1] is SK-MEL-28 melanoma cells. The data set can be described thus: MTT cell viability assay, IC50. Conditions: MTT assay, 48 h incubation. The class given is cell-based, human.
Data set [2] concerns tyrosinase. As to the kind of experiment: Tyrosinase mediated GSH depletion assay. The following applies: 100 μM phenolic agent, 200 μM GSH, tyrosinase/O2, 37 °C, 2 h. The format is biochemical, Mushroom.
Data set [3] is described as follows: Partition coefficient, distribution coefficient and water solubility.
For data set [4] the following is noted: no reference given; cited from earlier work.
In data set [5] the test system is CYP2E1 induced rat liver microsomes. Conditions: 100 μM, pH 7.4.
The subject of data set [6] is isolated rat hepatocytes. The following applies: trypan blue exclusion, 2 h incubation; cited from earlier work.

Where only a bound is given, the exact number is not on record here.

On to `O=C(O)C=Cc1ccc(O)cc1` [4-HCA, 4-hydroxycinnamic acid], for which the “LD50 (day 2) SK-MEL-28” value in data set [1] is recorded as 4.4 mM. In data set [2], the “Tyrosinase GSH depletion (2 h)” value is given as 16±3%.

For `O=C(O)CCc1ccc(O)cc1` [4-HPP, 4-hydroxypropionic acid], the “LD50 (day 2) SK-MEL-28” value in data set [1] was determined as 1.5 mM. Further, the “Tyrosinase GSH depletion (2 h)” value in data set [2] came out at 42±2%.

Consider `O=C(O)/C=C/c1ccc(O)c(O)c1` [CA, caffeic acid], for which the “LD50 (day 2) SK-MEL-28” value in data set [1] is 2.3 mM. For the same compound, the “Tyrosinase GSH depletion (2 h)” value in data set [2] is recorded as 200±6%. For the same compound, in data set [3] (from LogW), the “water solubility relative to CAPE” value amounted to 45 fold. Besides, the “ionized at physiological pH” value in data set [3] (pH 7.4) is “more than 99%”. Besides, the “pKa value of the carboxylic moiety” value in data set [4] is given as 4.62.

Regarding `O=C(/C=C/c1ccc(O)c(O)c1)O[C@@H]1C[C@](O)(C(=O)O)C[C@@H](O)[C@H]1O` [CGA, chlorogenic acid], in data set [1], the “LD50 (day 2) SK-MEL-28” value is >5 mM. Moreover, the “Tyrosinase GSH depletion (2 h)” value in data set [2] is 200±5%.

For the compound `O=C(O)/C=C/c1ccccc1` [CinA, cinnamic acid], the “Tyrosinase GSH depletion (2 h)” value in data set [2] turned out to be 40±7%. Further, the “Microsomes GSH depletion (2 h)” value in data set [5] amounted to 110±7%.

On to `O=C(O)CCc1ccc(O)c(O)c1` [DHCA, dihydrocaffeic acid], for which, in data set [1], the “LD50 (day 2) SK-MEL-28” value worked out at 2.2 mM. Also, the “Tyrosinase GSH depletion (2 h)” value in data set [2] worked out at 200±4%. Besides, the “LD50 (2 h) rat hepatocytes” value in data set [6] is reported as 6 mM.

With `O=C(O)CCc1ccccc1` [DHCinA, Dihydrocinnamic acid], the “LD50 (day 2) SK-MEL-28” value in data set [1] is 5 mM. In addition, in data set [2], the “Tyrosinase GSH depletion (2 h)” value is given as 32±3%.

As to ferulic acid [FA], the “LD50 (day 2) SK-MEL-28” value in data set [1] was found to be 2 mM. In addition, in data set [2], the “Tyrosinase GSH depletion (2 h)” value is 46±2%. The “LD50 (2 h) rat hepatocytes” value in data set [6] is listed as 25 mM.

The values are drawn from PMC2932756 (Chemico-biological interactions, 2010).
